# Measured values reported in US20100273722A1, “MODIFIED MINIATURE PROTEINS” (Yale University, priority 2007, published 2010).
# Values joined by “and” are separate entries in the source; they are usually repeats but may differ in a detail not shown here. Equal entries are not always repeated. Where two headings read alike, the source gives them in different places. Residues, ends and D or L forms follow the SMILES beside them.
# Experiments:
# [1] = biological target: Fyn SH3 domain-GST fusion protein (Homo sapiens, UniProt P06241); test: Fluorescence polarization direct binding assay, Fyn SH3; conditions: 50 nM fluorescently labeled ligand, PBS pH 7.4; read-out: Kd, Fyn SH3
# Chain of Fyn SH3 domain-GST fusion protein (P06241 81-142): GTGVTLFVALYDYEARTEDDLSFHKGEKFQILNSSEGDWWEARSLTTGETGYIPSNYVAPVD
# Experimental: (§1) Polarization was measured by excitation with vertically polarized light at 485 nm and the fluorescence emission detected at 530 nm in both the vertical and horizontal directions. An average of five measurements were recorded for each well. Samples were equilibrated at room temperature for 25 min before analysis, a time sufficient for the binding reactions to reach equilibrium. The polarization data were fit using Kaleidagraph v3.6 software to Eq. 5, which is derived from first principles without assumptions. […] In this equation, Pobs is the observed polarization value at any given concentration of target protein (GST•SH3 domain). Pmin is the polarization of peptide^Flu at 50 nM in the absence of target protein. Pmax is the maximum polarization of peptide^Flu at saturation with target protein. Kd is the equilibrium dissociation constant. […] In these cases a lower limit Kd was estimated by setting Pmax equal to the observed polarization at the highest target protein concentration tested, which was often limited by solubility. […] Free fits are shown. Kd values were estimated as described. […] In several cases, the plots of polarization versus [SH3 domain] began to increase at high [SH3 domain] (>50 micromolar), perhaps because of a second binding event. In these cases (indicated by an asterisk (*) in Table 5), data above 50 micromolar target protein was excluded during the curve fits.
# [2] = biological target: T1, c-Src SH3 domain-GST fusion protein (Gallus gallus, UniProt P00523); conditions: literature value; read-out: Kd, c-Src SH3 (reported); cited from earlier work
# Hck kinase = biological target: T2, Hck kinase (Homo sapiens, UniProt P08631); test: Hck kinase activation, NADH-coupled assay; format: biochemical; conditions: Activator 50 micromolar
# T2 construct: His6 (N); made in house; host or cells: HighFive insect cells, co-infected with Hck and Csk baculovirus
# T2 sequence (P08631 whole entry): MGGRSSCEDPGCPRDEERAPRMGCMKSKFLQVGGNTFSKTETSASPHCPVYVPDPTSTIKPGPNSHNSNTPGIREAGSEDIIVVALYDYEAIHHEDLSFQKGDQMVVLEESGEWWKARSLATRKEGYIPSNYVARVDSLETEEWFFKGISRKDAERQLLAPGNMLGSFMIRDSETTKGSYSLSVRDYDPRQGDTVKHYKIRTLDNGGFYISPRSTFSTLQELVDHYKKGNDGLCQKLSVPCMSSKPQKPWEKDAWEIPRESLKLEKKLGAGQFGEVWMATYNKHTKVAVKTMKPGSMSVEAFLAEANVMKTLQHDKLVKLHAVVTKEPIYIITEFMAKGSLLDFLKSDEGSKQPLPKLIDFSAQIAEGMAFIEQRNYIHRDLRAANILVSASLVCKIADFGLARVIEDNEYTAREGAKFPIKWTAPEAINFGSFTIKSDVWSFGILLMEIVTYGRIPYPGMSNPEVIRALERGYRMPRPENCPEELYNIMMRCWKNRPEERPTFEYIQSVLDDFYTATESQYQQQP
# Experimental: Activation of Hck kinase was measured using a validated NADH-coupled assay as described. Briefly, purified Hck kinase (15 micromolar) was first pre-incubated with 500 micromolar ATP and 20 mM MgCl2 for about 30 min on ice to initiate autophosphorylation of Y416. The autophosphorylated product (0.55 micromolar final concentration) was then incubated in Hck Reaction Buffer (20 mM MgCl2, 0.1 mM DTT, 20 μg/mL BSA, 100 mM HEPES (pH 7.5)) for 10 min at room temperature with the indicated concentration of Nef or miniature protein. At this time the remaining assay components (1 mM PEP, 0.2 mM NADH, 6 U pyruvate kinase (Type II from rabbit muscle, Sigma), 6 U L-lactic dehydrogenase (Type II from rabbit muscle, Sigma), 600 micromolar substrate peptide, and 500 micromolar ATP) were added to initiate the reaction (total volume 200 microliters) and the absorbance at 340 nm was monitored every 10 sec for 10 min using a Beckman DU 730 UVN is Spectrophotomer. The activation constant Kact for each ligand was calculated from the initial rate as a function of ligand concentration as previously described, using Eq. 6. Fold activation was calculated by dividing the rate in the presence of ligand by the rate in the absence of ligand.
# va=Vact[L]/(Kact±[L]) Equation 6.
# In this equation va is velocity measured in the presence of ligand minus the velocity measured in its absence; Vact is the maximal activated velocity minus the velocity measured in the absence of ligand; [L] is the concentration of activator and Kact is concentration of activator at half-maximal activation.
# [3] = biological target: T1, c-Src SH3 domain-GST fusion protein; test: Fluorescence polarization direct binding assay, c-Src SH3; set-up: species or system chicken; conditions: 50 nM fluorescently labeled ligand, PBS pH 7.4; read-out: Kd, c-Src SH3
# Experimental: (§2) Polarization was measured by excitation with vertically polarized light at 485 nm and the fluorescence emission detected at 530 nm in both the vertical and horizontal directions. An average of five measurements were recorded for each well. Samples were equilibrated at room temperature for 25 min before analysis, a time sufficient for the binding reactions to reach equilibrium. The polarization data were fit using Kaleidagraph v3.6 software to Eq. 5, which is derived from first principles without assumptions. […] In this equation, Pobs is the observed polarization value at any given concentration of target protein (GST•SH3 domain). Pmin is the polarization of peptide^Flu at 50 nM in the absence of target protein. Pmax is the maximum polarization of peptide^Flu at saturation with target protein. Kd is the equilibrium dissociation constant. […] Free fits are shown. Kd values were estimated as described.
# [4] = biological target: non-Src family SH3 domain (Ab1, Nck1, Grb2, Abp1); test: Fluorescence polarization binding to non-Src family SH3 domains; conditions: data not shown
# Experimental: Fluorescence polarization assays were performed with 50 nM fluorescently labeled miniature protein and the indicated SH3 domain-GST fusion protein in PBS (1 mM KH2PO4, 155 mM NaCl, 3 mM Na2HPO4 (pH 7.4)) supplemented with 1 mM DTT and using the Analyst™ AD 96·384 automated fluorescence plate reader (LjL Biosystems). Binding reactions (32 microliters) were analyzed within 384-well assay plates (Corning Inc., Plate #3654) using settings defined by Criterion Host software v.2.00.11 and z height 1 mm. Polarization was measured by excitation with vertically polarized light at 485 nm and the fluorescence emission detected at 530 nm in both the vertical and horizontal directions. An average of five measurements were recorded for each well. Samples were equilibrated at room temperature for 25 min before analysis, a time sufficient for the binding reactions to reach equilibrium. […]
# In this equation, Pobs is the observed polarization value at any given concentration of target protein (GST•SH3 domain). […] The observed binding free energy, ΔG, was calculated from the relationship ΔG=−RT ln Kd^−1, where R is the universal gas constant (1.987×10^−3 kcal mol^−1 K^−1) and T is the temperature in Kelvin (298 K). Fluorescence polarization analysis of the binding of fluorescently labeled miniature proteins and Peptide 1 to c-Src SH3^P133L are shown in FIG. 11. […]
# [5] = biological target: Lck SH3 domain-GST fusion protein (Homo sapiens, UniProt P06239); test: Fluorescence polarization direct binding assay, Lck SH3; conditions: 50 nM fluorescently labeled ligand, PBS pH 7.4; read-out: Kd, Lck SH3
# Chain of Lck SH3 domain-GST fusion protein (P06239 62-128): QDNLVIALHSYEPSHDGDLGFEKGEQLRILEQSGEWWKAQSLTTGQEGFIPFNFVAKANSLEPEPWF
# Experimental: as §1
# [6] = biological target: Hck SH3 domain-GST fusion protein (Homo sapiens, UniProt P08631); test: Fluorescence polarization direct binding assay, Hck SH3; conditions: 50 nM fluorescently labeled ligand, PBS pH 7.4; read-out: Kd, Hck SH3
# Chain of Hck SH3 domain-GST fusion protein (P08631 77-137): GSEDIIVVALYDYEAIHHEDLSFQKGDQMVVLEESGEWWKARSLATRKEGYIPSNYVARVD
# Experimental: as §2
# c-Src SH3^P133L = c-Src SH3^P133L (Gallus gallus, UniProt P00523, P133L); test: Fluorescence polarization direct binding assay, c-Src SH3^P133L; set-up: species or system chicken; conditions: 50 nM fluorescently labeled ligand; lower limit estimated; read-out: Kd, c-Src P133L SH3
# Experimental: as §2
# [7] = biological target: Lyn SH3 domain-GST fusion protein (Homo sapiens, UniProt P07948); test: Fluorescence polarization direct binding assay, Lyn SH3; conditions: 50 nM fluorescently labeled ligand, PBS pH 7.4; read-out: Kd, Lyn SH3
# Chain of Lyn SH3 domain-GST fusion protein (P07948 62-122): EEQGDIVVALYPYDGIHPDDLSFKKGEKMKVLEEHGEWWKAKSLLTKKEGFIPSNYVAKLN
# Experimental: as §1
structure (smiles),measurement,setting,value
CC(C)C[C@H](NC(=O)[C@H](CCCNC(=N)N)NC(=O)[C@@H]1CCCN1C(=O)[C@H](CCCNC(=N)N)NC(=O)[C@H](CC(N)=O)NC(=O)[C@H](CCCNC(=N)N)NC(=O)[C@@H]1CCCN1C(=O)[C@@H]1CCCN1C(=O)[C@H](CC(C)C)NC(=O)[C@@H]1CCCN1C(=O)[C@@H]1CCCN1C(=O)[C@H](C)N)C(N)=O [Peptide 1] (H-APPLPPRNRPRL-NH2),Kd,[1],870 to 2000 nM
same,Kd,[2],1200 nM
same,Activity,Hck kinase,33.9 ± 3.2 nmol/s
same,Fold-Activation,Hck kinase; rate with ligand / rate without ligand,3 and 3 ± 1
same,Kd,[3],1500 ± 100 nM
same,Kd,[4],> 20000 nM
same,Kd,[5],> 20000 nM
same,Kd,[6],870 to 2000 nM
same,Kd,c-Src SH3^P133L,> 20000 nM
same,Kd,[7],870 to 2000 nM
